Experimental findings from patent US9650395B2, “Antibacterial compounds and methods for use” (PTC Therapeutics, Inc., priority 2011, dated 2017) are described below.

A word on the MIC: it is the smallest concentration in the dilution series that meets the test's criterion for growth inhibition.

≈ marks a conversion by molar mass, not a printed value.

Assay [1] relates to super sensitive Gram-negative Escherichia coli (E. coli) BAS849. As to the kind of experiment: Antibacterial activity, microbroth dilution MIC, E. coli BAS849. Particulars: Escherichia coli; E. coli BAS849, microbroth dilution; read-out: MIC, BAS849. Type of assay: cell-based. Background: Broth dilution looks for growth in wells or tubes with falling amounts of substance.
The subject of assay [2] is control Gram-negative E. coli 25922 strain. In words: Antibacterial activity, microbroth dilution MIC, E. coli 25922. Type of assay: cell-based, Escherichia coli. Particulars: Escherichia coli; E. coli 25922, microbroth dilution; read-out: MIC, 25922.
Assay [3] deals with Gram-positive Staphylococcus aureus (S. aureus) 29213. As to the kind of experiment: Antibacterial activity, microbroth dilution MIC, S. aureus 29213. Type of assay: cell-based. Particulars: Staphylococcus aureus; S. aureus 29213, microbroth dilution; read-out: MIC, 29213.
For assay [4], the system named is quinolone resistant E. coli LZ3111. As to the kind of experiment: Antibacterial activity, MIC, quinolone resistant E. coli LZ3111. Type of assay: cell-based, Escherichia coli. The following applies: Escherichia coli, read-out: MIC, LZ3111. The source says: (§1) The antibacterial activity from a microbroth dilution method may be presented as the minimum inhibitory concentration (MIC in […]). The MIC value is the lowest concentration of a drug which prevents macroscopically visible bacterial growth under test conditions.
Mutations in these regions are known to confer a high level resistance to the quinolone class of antibiotics.

The test system of assay [5] is Acinetobacter baumannii (A. baumannii) BAA747. In words: Antibacterial activity, MIC, A. baumannii BAA747. Type of assay: cell-based. The following applies: Acinetobacter baumannii; A. baumannii BAA747; read-out: MIC BAA747.
The subject of assay [6] is Klebsiella pneumoniae (K. pneumoniae) 35657. As to the kind of experiment: Antibacterial activity, MIC, K. pneumoniae 35657. Type of assay: cell-based. The following applies: Klebsiella pneumoniae.
Assay [7] relates to resistant A. baumannii MXX2240 (MDR clinical isolate). In words: Antibacterial activity, MIC, resistant A. baumannii MXX2240. Type of assay: cell-based, Acinetobacter baumannii. Particulars: Acinetobacter baumannii, resistant A. baumannii MMX2240, MDR clinical isolate; read-out: MIC MMX2240.
Assay [8] relates to resistant K. pneumoniae MXX1232 (MDR clinical isolate). As to the kind of experiment: Antibacterial activity, MIC, resistant K. pneumoniae MXX1232. The following applies: Klebsiella pneumoniae; resistant K. pneumoniae MMX1232, MDR clinical isolate; read-out: MIC MMX1232. Type of assay: cell-based, Klebsiella pneumoniae.
Assay [9] deals with Pseudomonas aeruginosa (P. aeruginosa) 27853. As to the kind of experiment: Antibacterial activity, MIC, P. aeruginosa 27853. Type of assay: cell-based. The following applies: Pseudomonas aeruginosa, P. aeruginosa 27853; read-out: MIC 27853.
Source text: as §1
Antibacterial activity of test compounds against the Gram-negative bacterium Pseudomonas aeruginosa (P. aeruginosa) 27853 is shown in Table 5.

Consider `Cc1c(-c2ccc(N3C[C@@H]4[C@@H](N)[C@@H]4C3)cn2)[nH]c(=O)c(C(=O)O)c1O` [Cpd 317, 6-(5-((1R,5S,6s)-6-amino-3-azabicyclo[3.1.0]hexan-3-yl)pyridin-2-yl)-4-hydroxy-5-methyl-2-oxo-1,2-dihydropyridine-3-carboxylic acid], for which the MIC in assay [1] lay in the range of 3.5 to 12.5 µg/mL (≈ 10.2 to 36.5 µM); in assay [2], 3.5 to 12.5 µg/mL (≈ 10.2 to 36.5 µM); in [3], 12.5 to 150 µg/mL (≈ 36.5 to 438 µM); in [4] it was 12.5 to 150 µg/mL (≈ 36.5 to 438 µM); in assay [5], 12.5 to 150 µg/mL (≈ 36.5 to 438 µM); in [6], 3.5 to 12.5 µg/mL (≈ 10.2 to 36.5 µM). Besides, the MIC in assay [7], in assay [8] and in assay [9] was 12.5 to 150 µg/mL (≈ 36.5 to 438 µM) in each case.

Regarding `Cc1cc(N2C[C@@H]3[C@@H](N)[C@@H]3C2)ccc1-c1[nH]c(=O)c(C(=O)O)c(O)c1C` [Cpd 318, 6-(4-((1R,5S,6s)-6-amino-3-azabicyclo[3.1.0]hexan-3-yl)-2-methylphenyl)-4-hydroxy-5-methyl-2-oxo-1,2-dihydropyridine-3-carboxylic acid], the MIC lay within 3.5 to 12.5 µg/mL (≈ 9.85 to 35.2 µM) in assay [1]; 12.5 to 150 µg/mL (≈ 35.2 to 422 µM) in assay [2]; 12.5 to 150 µg/mL (≈ 35.2 to 422 µM) in assay [3]; 12.5 to 150 µg/mL (≈ 35.2 to 422 µM) in assay [4]; 12.5 to 150 µg/mL (≈ 35.2 to 422 µM) in [5]; 12.5 to 150 µg/mL (≈ 35.2 to 422 µM) in assay [6]. Further, the MIC in [7], in assay [8] and in assay [9] was 12.5 to 150 µg/mL (≈ 35.2 to 422 µM) each time.

`CCc1c(-c2ccc(N3CC4(CCN(C)CC4)C3)cc2)[nH]c(=O)c(C(=O)O)c1O` [Cpd 319, 5-ethyl-4-hydroxy-6-(4-(7-methyl-2,7-diazaspiro[3.5]nonan-2-yl)phenyl)-2-oxo-1,2-dihydropyridine-3-carboxylic acid]: the MIC in [1] was less than 1 µg/mL; in assay [2], 3.5 to 12.5 µg/mL (≈ 8.81 to 31.4 µM); in [3], 12.5 to 150 µg/mL (≈ 31.4 to 377 µM); in [4] it was 12.5 to 150 µg/mL (≈ 31.4 to 377 µM); in assay [5], 12.5 to 150 µg/mL (≈ 31.4 to 377 µM); in [6] it was 3.5 to 12.5 µg/mL (≈ 8.81 to 31.4 µM). The MIC in assay [7], in [8] and in [9] was 12.5 to 150 µg/mL (≈ 31.4 to 377 µM) each time.

With `CCc1c(-c2ccc(N3CC4(CCNCC4)C3)cc2)[nH]c(=O)c(C(=O)O)c1O` [Cpd 320, 6-(4-(2,7-diazaspiro[3.5]nonan-2-yl)phenyl)-5-ethyl-4-hydroxy-2-oxo-1,2-dihydropyridine-3-carboxylic acid], the MIC was 3.5 to 12.5 µg/mL (≈ 9.13 to 32.6 µM) in assay [1]; 12.5 to 150 µg/mL (≈ 32.6 to 391 µM) in assay [2]; 12.5 to 150 µg/mL (≈ 32.6 to 391 µM) in assay [3]; 12.5 to 150 µg/mL (≈ 32.6 to 391 µM) in [4]; 12.5 to 150 µg/mL (≈ 32.6 to 391 µM) in assay [5]; 3.5 to 12.5 µg/mL (≈ 9.13 to 32.6 µM) in [6]. In addition, the MIC in assay [7], in [8] and in assay [9] was 12.5 to 150 µg/mL (≈ 32.6 to 391 µM) each time.

`CCc1c(-c2ccc(N3CCC4(CCNC4)C3)cc2)[nH]c(=O)c(C(=O)O)c1O` (stereo not drawn) [Cpd 321, 6-(4-(2,7-diazaspiro[4.4]nonan-2-yl)phenyl)-5-ethyl-4-hydroxy-2-oxo-1,2-dihydropyridine-3-carboxylic acid]: the MIC was 1 to 3.5 µg/mL (≈ 2.61 to 9.13 µM) in assay [1]; 12.5 to 150 µg/mL (≈ 32.6 to 391 µM) in assay [2]; 12.5 to 150 µg/mL (≈ 32.6 to 391 µM) in assay [3]; 12.5 to 150 µg/mL (≈ 32.6 to 391 µM) in assay [4]; 12.5 to 150 µg/mL (≈ 32.6 to 391 µM) in [5]; 3.5 to 12.5 µg/mL (≈ 9.13 to 32.6 µM) in assay [6]. In addition, the MIC in [7], in assay [8] and in assay [9] was 12.5 to 150 µg/mL (≈ 32.6 to 391 µM) in each case.

`CCc1c(-c2ccc(N3CCC4(CCN(C)C4)C3)cc2)[nH]c(=O)c(C(=O)O)c1O` (stereo not drawn) [Cpd 322, 5-ethyl-4-hydroxy-6-(4-(7-methyl-2,7-diazaspiro[4.4]nonan-2-yl)phenyl)-2-oxo-1,2-dihydropyridine-3-carboxylic acid]: the MIC in assay [1] is less than 1 µg/mL; in [2], less than 1 µg/mL; in assay [3], 3.5 to 12.5 µg/mL (≈ 8.81 to 31.4 µM); in assay [4] it was 12.5 to 150 µg/mL (≈ 31.4 to 377 µM); in assay [5] it was 1 to 3.5 µg/mL (≈ 2.52 to 8.81 µM); in assay [6] it was 1 to 3.5 µg/mL (≈ 2.52 to 8.81 µM). Moreover, the MIC was 12.5 to 150 µg/mL (≈ 31.4 to 377 µM) in assay [7], 12.5 to 150 µg/mL (≈ 31.4 to 377 µM) in assay [8] and 3.5 to 12.5 µg/mL (≈ 8.81 to 31.4 µM) in assay [9].
